Target: ATP-dependent translocase ABCB1 (Rattus norvegicus, UniProt P43245)
Test: TP_TRANSPORTER: RT-PCR in vitro, liver epithelial cells
Type: functional, tissue-based
Details: epithelial cell

ATP-dependent translocase ABCB1, sequence (P43245 whole entry): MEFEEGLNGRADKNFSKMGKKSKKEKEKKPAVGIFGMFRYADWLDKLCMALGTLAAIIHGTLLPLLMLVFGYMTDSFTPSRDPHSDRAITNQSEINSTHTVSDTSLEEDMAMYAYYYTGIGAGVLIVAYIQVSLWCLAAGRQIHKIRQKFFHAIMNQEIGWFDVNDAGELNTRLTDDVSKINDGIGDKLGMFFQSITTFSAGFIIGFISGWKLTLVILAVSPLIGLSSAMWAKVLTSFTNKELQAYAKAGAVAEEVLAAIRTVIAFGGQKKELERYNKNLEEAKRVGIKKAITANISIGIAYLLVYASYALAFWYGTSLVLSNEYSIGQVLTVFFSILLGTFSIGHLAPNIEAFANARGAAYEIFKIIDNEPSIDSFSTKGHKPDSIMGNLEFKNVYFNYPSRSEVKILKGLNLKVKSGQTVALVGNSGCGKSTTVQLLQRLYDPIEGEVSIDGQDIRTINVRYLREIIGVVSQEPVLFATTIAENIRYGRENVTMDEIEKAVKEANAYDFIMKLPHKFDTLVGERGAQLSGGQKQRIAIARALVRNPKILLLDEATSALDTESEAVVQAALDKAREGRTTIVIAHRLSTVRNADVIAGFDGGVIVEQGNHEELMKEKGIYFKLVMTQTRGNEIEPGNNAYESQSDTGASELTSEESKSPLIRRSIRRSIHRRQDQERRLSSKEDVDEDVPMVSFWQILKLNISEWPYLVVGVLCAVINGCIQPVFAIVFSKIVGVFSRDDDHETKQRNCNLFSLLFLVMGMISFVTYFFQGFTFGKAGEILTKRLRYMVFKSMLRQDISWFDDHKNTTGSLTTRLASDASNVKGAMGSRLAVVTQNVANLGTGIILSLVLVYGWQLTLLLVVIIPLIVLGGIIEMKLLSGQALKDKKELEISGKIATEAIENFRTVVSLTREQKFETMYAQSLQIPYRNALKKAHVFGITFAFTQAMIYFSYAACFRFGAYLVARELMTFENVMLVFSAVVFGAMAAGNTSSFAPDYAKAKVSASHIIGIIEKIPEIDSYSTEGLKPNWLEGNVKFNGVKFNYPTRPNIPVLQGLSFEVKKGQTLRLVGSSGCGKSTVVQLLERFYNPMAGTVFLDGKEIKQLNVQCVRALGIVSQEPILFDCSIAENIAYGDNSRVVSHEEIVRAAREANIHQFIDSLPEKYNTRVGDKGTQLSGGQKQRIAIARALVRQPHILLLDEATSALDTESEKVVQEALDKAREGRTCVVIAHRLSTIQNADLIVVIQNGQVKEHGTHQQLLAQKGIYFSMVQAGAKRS

Q: `COS(C)(=O)=O` [METHANESULFONIC ACID METHYL ESTER] was tested. Which Activity did it give?
A: inducer [+]

From ChEMBL document CHEMBL2073770, “Induction of multidrug resistance gene expression in rat liver cells in response to acute treatment by the DNA-damaging agent methyl methanesulfonate” (Biochem Biophys Res Commun, 1998)
